Patent US8329707B2, “Substituted pyrazine compounds” (Astellas Pharma Inc., priority 2008, dated 2012)
Structures can show the parent of a compound that is named as a salt.

Biological target: T1, recombinant human hepatic type GK (GST-hGK2) (Homo sapiens, UniProt P35557)
T1 construct: made in house; host or cells: Escherichia coli BL21
T1 sequence (P35557 1-466 isoform P35557-2): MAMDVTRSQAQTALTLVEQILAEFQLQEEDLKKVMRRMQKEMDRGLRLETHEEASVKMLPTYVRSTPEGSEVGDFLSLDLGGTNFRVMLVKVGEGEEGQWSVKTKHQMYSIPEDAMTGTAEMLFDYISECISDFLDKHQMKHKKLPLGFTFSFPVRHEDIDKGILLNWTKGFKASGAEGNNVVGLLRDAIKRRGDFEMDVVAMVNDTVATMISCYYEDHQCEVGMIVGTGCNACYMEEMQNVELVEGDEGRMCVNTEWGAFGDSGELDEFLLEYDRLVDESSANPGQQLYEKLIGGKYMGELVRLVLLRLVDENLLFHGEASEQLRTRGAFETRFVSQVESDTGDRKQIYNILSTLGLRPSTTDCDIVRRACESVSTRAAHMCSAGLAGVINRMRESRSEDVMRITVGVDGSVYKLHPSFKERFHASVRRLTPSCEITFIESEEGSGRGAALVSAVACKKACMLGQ
Assay: Measurement of glucokinase (GK) activation
Assay type: biochemical
Conditions: 10 min, read-out: GK activation (%)
Experimental: The present test was carried out in accordance with the method described in Science 301: 370-373, 2003 and with partial modification thereof. Hereinafter, the summary is described.
First, the cloning of GK (GenBank No. AK122876) was carried out. 5′-[…]-3′(SEQ ID NO: 1) and 5′-[…]-3′(SEQ ID NO: 2) were used as primers, and pME18S-FL3-Glucokinase isoform 2 was used as a template to carry out PCR. The obtained reaction product was TA-cloned into a pGEM-T easy vector, digested with EcoRI and XhoI, and introduced to the pGEX-5X-1 vector digested in the same manner by ligation. By using this plasmid DNA (pGEX-human Glucokinase 2), a recombinant human hepatic type GK (GST-hGK2) fused with GST (Glutathione S-transferase) was expressed in Escherichia coli (BL21 strain) and purified by Glutathione Sepharose.
The reaction of GK was carried out at 27° C. on a 96-well plate. First, 1 μL of the test compound (final concentration 10 μM) that has been diluted with dimethylsulfoxide (DMSO) was added to 89 μL of an enzyme mixed liquid (all final concentration 25 mM HEPES pH 7.4, 25 mM KCl, 2 mM MgCl2, 1 mM ATP, 0.1% BSA, 1 mM DTT, 1 mM NADP (nicotinamide adenine dinucleotide phosphate), 2.5 U/ml glucose-6-phosphate dehydrogenase, GST-hGK2 adjusted to ΔODCont of about 0.05 to 0.10). Subsequently, 10 μL of a substrate solution (final concentration 5 mM glucose) was added to start the reaction. In order to quantify a final product NADPH, an absorbance at a wavelength of 340 nm was measured, and the GK activation (%) of the test compound was calculated from the increase of absorbance during the first 10 minutes (ΔOD) after initiation of the reaction. GK activation (%)=[(ΔODTest)−(ΔODCont)]/(ΔODCont)×100
ΔODTest: ΔOD at test compound

Point of comparison: `CC(=O)c1csc(NC(=O)/C(=C/[C@H]2CCC(=O)C2)c2ccc(S(=O)(=O)C3CC3)c(C3CC3)c2)n1` [Example 44], activation at 10 µM 389%. Against it:
- O=C1CCC(/C=C(/C(=O)Nc2cnc(C(O)CO)cn2)c2ccc(S(=O)(=O)C3CC3)c(C3CC3)c2)C1 (centres unmarked) [Example 38] — lower, 386%

Same assay, conditions: 10 min; test compound final concentration 10 μM; 5 mM glucose; 27° C.; increase of absorbance at 340 nm during first 10 minutes vs DMSO; read-out: GK activation (%)

Point of comparison: `O=C1CC[C@H](/C=C(/C(=O)Nc2nc3ccc(OCCO)nc3s2)c2ccc(S(=O)(=O)C3CC3)c(C3CC3)c2)C1` [Example 7, (2E)-2-[3-cyclopropyl-4-(cyclopropylsulfonyl)phenyl]-N-[5-(2-hydroxyethoxy)[1,3]thiazolo[5,4-b]pyridin-2-yl]-3-[(1S)-3-oxocyclopentyl]acrylamide], activation at 10 µM 418%. Against it:
- O=C(Nc1ccn(CC(O)CO)n1)/C(=C/C1CCCC1)c1ccc(S(=O)(=O)C2CC2)c(C2CC2)c1 (stereo in doubt) [Example 3, (2E)-3-cyclopentyl-2-[3-cyclopropyl-4-(cyclopropylsulfonyl)phenyl]-N-{1-[(2S)-2,3-dihydroxypropyl]-1H-pyrazol-3-yl}acrylamide] — lower, 328%
- O=C1CC[C@H](/C=C(/C(=O)Nc2nc([C@H](O)CO)cs2)c2ccc(S(=O)(=O)C3CC3)c(C3CC3)c2)C1 [Example 43] — lower, 391%
- Cc1cnc(NC(=O)[C@H](C[C@H]2CCC(=O)C2)c2ccc(S(=O)(=O)C3CC3)c(C3CC3)c2)cn1 [Example 55] — lower, 315%
- O=C(Nc1ccn(CCCO)n1)/C(=C/C1CCCC1)c1ccc(S(=O)(=O)C2CC2)c(C2CC2)c1 [Example 1, (2E)-3-cyclopentyl-2-[3-cyclopropyl-4-(cyclopropylsulfonyl)phenyl]-N-[1-(3-hydroxypropyl)-1H-pyrazol-3-yl]acrylamide] — lower, 330%
- Cc1cnc(NC(=O)/C(=C/C2CCOC2)c2ccc(S(=O)(=O)C3CC3)c(C3CC3)c2)cn1 (centres unmarked) [Example 29] — lower, 300%
- O=C1CC[C@H](/C=C(/C(=O)Nc2nc(CF)cs2)c2ccc(S(=O)(=O)C3CC3)c(C3CC3)c2)C1 [Example 46] — lower, 392%
- Cc1cnc(NC(=O)[C@H](C[C@H]2CCC(O)C2)c2ccc(S(=O)(=O)C3CC3)c(C3CC3)c2)cn1 (some centres unmarked) [Example 78] — lower, 273%
- Cc1ccc(NC(=O)/C(=C/[C@H]2CCC(=O)C2)c2ccc(S(=O)(=O)C3CC3)c(C3CC3)c2)nc1 [Example 45] — lower, 377%
- Cn1ccc(NC(=O)[C@H](C[C@H]2CCC(O)C2)c2ccc(S(=O)(=O)C3CC3)c(C3CC3)c2)n1 (some centres unmarked) [Example 85] — lower, 257%
- CC(=O)c1cnc(NC(=O)/C(=C/[C@H]2CCC(=O)C2)c2ccc(S(=O)(=O)C3CC3)c(C3CC3)c2)s1 [Example 39] — lower, 286%
- O=C1CCC(/C=C(/C(=O)Nc2cnc(CO)cn2)c2ccc(S(=O)(=O)C3CC3)c(C3CC3)c2)C1 (centres unmarked) [Example 6, (2E)-2-[3-cyclopropyl-4-(cyclopropylsulfonyl)phenyl]-N-[5-(hydroxymethyl)pyrazin-2-yl]-3-(3-oxocyclopentyl)acrylamide] — lower, 336%
- O=C(Nc1ccn(C[C@H](O)CO)n1)/C(=C/C1CCCC1)c1ccc(S(=O)(=O)C2CC2)c(C2CC2)c1 [Example 30] — lower, 309%
- Cc1cnc(NC(=O)/C(=C/[C@@H]2CCC(=O)C2)c2ccc(S(=O)(=O)C3CC3)c(C3CC3)c2)cn1 [Example 34] — lower, 245%
- Cc1cnc(NC(=O)/C(=C/C2CCC(=O)C2)c2ccc(S(=O)(=O)C3CC3)c(C3CC3)c2)cn1 (centres unmarked) [Example 31] — lower, 387%
- O=C1CC[C@@H](/C=C(/C(=O)Nc2ncc(Cl)s2)c2ccc(S(=O)(=O)C3CC3)c(C3CC3)c2)C1 [Example 35] — lower, 265%
- O=C1CC[C@H](/C=C(/C(=O)Nc2ccc(C(=O)O)cn2)c2ccc(S(=O)(=O)C3CC3)c(C3CC3)c2)C1 [Example 5, 6-({(2E)-2-[3-cyclopropyl-4-(cyclopropylsulfonyl)phenyl]-3-[(1S)-3-oxocyclopentyl]prop-2-enoyl}amino)nicotinic acid monohydrochloride] — lower, 410%
- Cc1cnc(NC(=O)/C(=C/[C@H]2CCC(=O)C2)c2ccc(S(=O)(=O)C3CC3)c(C3CC3)c2)s1 [Example 48] — lower, 257%
- O=C(Nc1ncc(Cl)s1)/C(=C/C1CCOCC1)c1ccc(S(=O)(=O)C2CC2)c(C2CC2)c1 [Example 26] — lower, 231%
- CC(=O)c1csc(NC(=O)[C@H](C[C@H]2CCC(=O)C2)c2ccc(S(=O)(=O)C3CC3)c(C3CC3)c2)n1 [Example 51] — lower, 352%
- Cn1ccc(NC(=O)/C(=C/C2CCC(=O)C2)c2ccc(S(=O)(=O)C3CC3)c(C3CC3)c2)n1 (centres unmarked) [Example 32] — lower, 410%
- Cn1ccc(NC(=O)/C(=C/C2CCOC2)c2ccc(S(=O)(=O)C3CC3)c(C3CC3)c2)n1 (centres unmarked) [Example 25] — lower, 334%
- O=C1CC[C@H](/C=C(/C(=O)Nc2ncc(F)s2)c2ccc(S(=O)(=O)C3CC3)c(C3CC3)c2)C1 [Example 47] — lower, 297%
- Cn1ccc(NC(=O)/C(=C/C2CCCC2)c2ccc(S(=O)(=O)C3CC3)c(C3CC3)c2)n1 [Example 24] — lower, 345%
- O=C1CC[C@H](/C=C(/C(=O)Nc2nccs2)c2ccc(S(=O)(=O)C3CC3)c(C3CC3)c2)C1 [Example 40] — lower, 397%
- COc1cnc(NC(=O)[C@H](C[C@H]2CCC(O)C2)c2ccc(S(=O)(=O)C3CC3)c(C3CC3)c2)cn1 (some centres unmarked) [Example 79] — lower, 297%
- O=C1CCC(/C=C(/C(=O)Nc2ncc(Cl)s2)c2ccc(S(=O)(=O)C3CC3)c(C3CC3)c2)C1 (centres unmarked) [Example 33] — lower, 375%
- COc1cnc(NC(=O)[C@H](C[C@H]2CCC(=O)C2)c2ccc(S(=O)(=O)C3CC3)c(C3CC3)c2)cn1 [Example 72] — lower, 311%
- CC(C)(O)c1cnc(NC(=O)[C@H](C[C@H]2CCC(=O)C2)c2ccc(S(=O)(=O)C3CC3)c(C3CC3)c2)cn1 [Example 75] — lower, 307%
- Cn1ccc(NC(=O)/C(=C/[C@@H]2CCC(=O)C2)c2ccc(S(=O)(=O)C3CC3)c(C3CC3)c2)n1 [Example 37] — lower, 260%
- O=C1CC[C@H](/C=C(/C(=O)Nc2ncc(Cl)s2)c2ccc(S(=O)(=O)C3CC3)c(C3CC3)c2)C1 [Example 41] — lower, 362%
- Cc1cnc(NC(=O)/C(=C/C2CCOCC2)c2ccc(S(=O)(=O)C3CC3)c(C3CC3)c2)cn1 [Example 28] — lower, 314%
- Cn1ccc(NC(=O)/C(=C/C2CCOCC2)c2ccc(S(=O)(=O)C3CC3)c(C3CC3)c2)n1 [Example 2, (2E)-2-[3-cyclopropyl-4-(cyclopropylsulfonyl)phenyl]-N-(1-methyl-1H-pyrazol-3-yl)-3-(tetrahydro-2H-pyran-4-yl)acrylamide] — lower, 365%
- O=C1CC[C@H](C[C@@H](C(=O)Nc2cnc(CCO)cn2)c2ccc(S(=O)(=O)C3CC3)c(C3CC3)c2)C1 [Example 99] — lower, 326%
- O=C(Nc1ncc(Cl)s1)/C(=C/C1CCOC1)c1ccc(S(=O)(=O)C2CC2)c(C2CC2)c1 (centres unmarked) [Example 27] — lower, 211%
- CC(=O)c1cnc(NC(=O)[C@H](C[C@H]2CCC(=O)C2)c2ccc(S(=O)(=O)C3CC3)c(C3CC3)c2)cn1 [Example 74] — lower, 337%
- Cc1ccc(NC(=O)[C@H](C[C@H]2CCC(O)C2)c2ccc(S(=O)(=O)C3CC3)c(C3CC3)c2)nc1 (some centres unmarked) [Example 81] — lower, 211%

System: ICR mouse
Assay: Oral glucose tolerance test in normal mouse
Assay type: in vivo
Conditions: ICR mouse fasted overnight; 10 mg/kg oral, glucose loading after 30 minutes; AUC lowering rate of blood glucose up to 2 hours after glucose loading vs solvent control
Experimental: The test compound was dissolved in a solvent (5% Cremophor, aqueous 5% DMSO solution), and to an ICR mouse after fasting overnight was orally administered 10 mg/kg of the test compound, and after 30 minutes, oral glucose loading was carried out. Immediately before the administration of the test compound, immediately before the glucose loading, and 0.25, 0.5, 1, and 2 hours after the glucose loading, blood was collected and blood glucose levels were measured. An AUC lowering rate (%) of the blood glucose levels from immediately before the glucose loading to 2 hours after the glucose loading with respect to that of the solvent control group was calculated.

Point of comparison: `COc1cnc(NC(=O)[C@H](C[C@H]2CCC(=O)C2)c2ccc(S(=O)(=O)C3CC3)c(C3CC3)c2)cn1` [Example 72], inhibition in vivo at 10 mg/kg 59%. Against it:
- Cc1cnc(NC(=O)[C@H](C[C@H]2CCC(=O)C2)c2ccc(S(=O)(=O)C3CC3)c(C3CC3)c2)cn1 [Example 55] — lower, 56%
- Cc1cnc(NC(=O)[C@H](C[C@H]2CCC(O)C2)c2ccc(S(=O)(=O)C3CC3)c(C3CC3)c2)cn1 (some centres unmarked) [Example 78] — lower, 50%
- CC(=O)c1csc(NC(=O)[C@H](C[C@H]2CCC(=O)C2)c2ccc(S(=O)(=O)C3CC3)c(C3CC3)c2)n1 [Example 51] — lower, 55%
- COc1cnc(NC(=O)[C@H](C[C@H]2CCC(O)C2)c2ccc(S(=O)(=O)C3CC3)c(C3CC3)c2)cn1 (some centres unmarked) [Example 79] — lower, 45%
